Target: T1, human Glx-I enzyme (Homo sapiens, UniProt Q04760)
T1 sequence (Q04760 2-184 limits assumed): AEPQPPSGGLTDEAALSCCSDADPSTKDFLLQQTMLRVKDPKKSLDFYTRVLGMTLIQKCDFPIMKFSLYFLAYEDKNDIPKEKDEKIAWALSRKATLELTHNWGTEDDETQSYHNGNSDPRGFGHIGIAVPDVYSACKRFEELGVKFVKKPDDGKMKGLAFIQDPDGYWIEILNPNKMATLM
Test: Glx-I inhibitory activity in vitro
Format: biochemical
Conditions: for inhibition at 25 µM: read-out: % Inhibition at 25 μM

IC50 | inhibition at 25 µM | SMILES
39.1 ± 5.31 µM | 46.2% | Nc1ccc(/N=N/c2ccc(S(N)(=O)=O)cc2)c2cc(O)ccc12 [Compound 13, (E)-4-((4-amino-7-hydroxynaphthalen-1-yl)diazenyl)benzenesulfonamide]
0.39 ± 0.03 µM | 97.4% | NS(=O)(=O)c1ccc(/N=N/c2ccc(O)c(C(=O)O)c2)cc1 [Compound 26, (E)-2-hydroxy-5-((4-sulfamoylphenyl)diazenyl)benzoic acid]
